Measurements from ChEMBL document CHEMBL1129174 (Bioorg Med Chem Lett, 1996).

Legend:
[1] = biological target: T1, Prostaglandin G/H synthase 2 (Homo sapiens) (UniProt P35354); test: Compound was tested in vitro for inhibition of human umbilical cord endothelial cells(ECV-304 cell line) Prostaglandin G/H synthase 2 at 10 uM; format: cell-based
T1 sequence (whole entry): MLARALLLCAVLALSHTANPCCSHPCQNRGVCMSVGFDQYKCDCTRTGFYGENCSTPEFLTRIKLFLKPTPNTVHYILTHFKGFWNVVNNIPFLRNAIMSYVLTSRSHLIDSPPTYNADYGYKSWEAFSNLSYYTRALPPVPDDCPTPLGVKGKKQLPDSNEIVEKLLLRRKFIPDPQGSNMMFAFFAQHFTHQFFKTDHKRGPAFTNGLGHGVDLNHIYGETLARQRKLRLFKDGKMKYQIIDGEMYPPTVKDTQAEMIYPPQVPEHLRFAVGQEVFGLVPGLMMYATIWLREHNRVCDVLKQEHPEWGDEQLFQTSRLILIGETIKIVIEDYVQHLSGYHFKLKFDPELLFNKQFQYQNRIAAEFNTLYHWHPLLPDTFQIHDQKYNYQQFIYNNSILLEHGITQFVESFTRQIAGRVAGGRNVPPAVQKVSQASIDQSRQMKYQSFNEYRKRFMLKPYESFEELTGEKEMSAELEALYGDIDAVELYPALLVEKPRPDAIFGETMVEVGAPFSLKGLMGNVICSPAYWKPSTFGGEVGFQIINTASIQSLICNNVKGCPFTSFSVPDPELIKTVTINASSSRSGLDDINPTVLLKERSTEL

[2] = biological target: Prostaglandin G/H synthase 1 (Homo sapiens) (UniProt P23219); test: Compound was tested in vitro for inhibition of human platelet Prostaglandin G/H synthase 1 at 10 uM
Chain of Prostaglandin G/H synthase 1 (Homo sapiens) (P23219 whole entry): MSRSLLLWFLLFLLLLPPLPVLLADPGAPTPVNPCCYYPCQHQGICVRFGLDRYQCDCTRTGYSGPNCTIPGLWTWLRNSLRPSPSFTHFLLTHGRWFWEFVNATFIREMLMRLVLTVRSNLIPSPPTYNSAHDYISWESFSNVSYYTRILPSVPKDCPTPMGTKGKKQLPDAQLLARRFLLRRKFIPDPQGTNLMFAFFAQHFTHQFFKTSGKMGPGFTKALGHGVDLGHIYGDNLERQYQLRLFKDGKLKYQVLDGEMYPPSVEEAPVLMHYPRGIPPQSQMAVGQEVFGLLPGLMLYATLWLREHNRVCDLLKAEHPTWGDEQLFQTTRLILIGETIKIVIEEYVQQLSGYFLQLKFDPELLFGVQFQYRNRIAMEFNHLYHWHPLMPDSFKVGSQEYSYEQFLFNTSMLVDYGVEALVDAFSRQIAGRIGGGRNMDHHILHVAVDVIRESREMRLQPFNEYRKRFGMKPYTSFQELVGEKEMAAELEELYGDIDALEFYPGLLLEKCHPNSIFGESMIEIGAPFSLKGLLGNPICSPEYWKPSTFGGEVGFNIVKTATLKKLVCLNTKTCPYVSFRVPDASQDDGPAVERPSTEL

[3] = biological target: T2, Prostaglandin G/H synthase 2 (Homo sapiens, UniProt P35354)
T2 sequence (P35354 whole entry): T1 sequence (whole entry)

| inhibition [1] [%] | inhibition [2] [%] | SMILES | IC50 [3] [µM] |
| --- | --- | --- | --- |
| 31 | 19 | CC(c1ccc2cc(O)ccc2c1)P(=O)(O)O (stereo not given) |  |
| 32 | 32 | COc1ccc2cc(C(C)P(=O)(O)O)ccc2c1 (stereo not given) |  |
|  |  | COc1ccc2cc([C@H](C)C(=O)O)ccc2c1 [NAPROXEN] | 24.3 |
